Laboratory results taken from patent publication EP4778922A1, “BICYCLIC COMPOUND, AND PREPARATION METHOD THEREFOR AND PHARMACEUTICAL USE THEREOF” (Shanghai Jeyou Pharmaceutical Co., Ltd., priority 2023, dated 2025).

System: 22RV1 cells
Experiment: Cell proliferation inhibition assay in 22RV1 cells (CellTiter-Glo, 7 days)
Format: cell-based, human
Settings: Homo sapiens
Description: • 1. The human prostate cancer cell lines 22RV1 and LNCaP were purchased from ATCC. […] The cell concentration was adjusted to an appropriate concentration (determined based on the results of cell density optimization experiments), and the cells were seeded into a 96-well plate. A 100 µL cell suspension was added, resulting in 3000 cells per well. […] On the second day, for 22Rv1 cells, test compounds at different concentrations were added, and the cells were incubated at 37°C in a 5% CO2 incubator for 7 days; for LNCaP cells, test compounds at different concentrations were added first, and after 1 hour of treatment, 0.2 nM DHT was added. The cells were then incubated at 37°C in a 5% CO2 incubator for 7 days. • 4. After the incubation period, a volume of CellTiter-Glo detection reagent equal to the volume of the culture medium was added to each well. The plate was shaken and mixed thoroughly for 5 minutes, then incubated at room temperature for 10 minutes. Readings were taken using a PerkinElmer EnVision microplate reader. • 5.
The IC50 curve was fitted and the IC50 value was calculated using the software GraphPad Prism 8 with the calculation formula XY-analysis/Nonlinear regression (curve fit)/Dose response-Inhibition/log (inhibitor) vs. response-Variable slope (four parameters).

Row | SMILES | IC50 (168 h) [nM] | IC50 (22Rv1, 168 h) [nM]
1 | CC(C)(c1ccc(-c2ccc(OCc3ccnc(N4CC5(C4)CS(=O)(=O)C5)n3)cn2)cc1)c1cc(Cl)c(OCCCl)c(C#N)c1 [Compound 84] | 1050 | 
2 | CC(C)(c1ccc(-c2ccc(OCc3ccnc(N=S4(=O)CCNCC4)n3)cn2)cc1)c1cc(Cl)c(OCCCl)c(C#N)c1 [Compound 86] | 630 | 
3 | CC(C)(c1ccc(-c2ccc(OCC3CC4(C3)CS(=O)(=O)C4)cc2)cc1)c1cc(Cl)c(OCCCl)c(C#N)c1 [Compound 106] | 190 | 
4 | CC(C)(c1ccc(-c2ccc(OCc3ccnc(N4CC5(CC(S(C)(=O)=O)C5)C4)n3)cc2)cc1)c1cc(Cl)c(OCCCl)c(C#N)c1 [Compound 121] | 190 | 
5 | CC(C)(c1ccc(-c2ccc(OCc3ccnc(N=S4(=O)CCN(CC(F)(F)F)CC4)n3)cn2)cc1)c1cc(Cl)c(OCCCl)c(C#N)c1 [Compound 139] | 650 | 
6 | CC(C)(c1ccc(-c2ccc(OC3CC4CCC(C3)N4c3ccnc(P(C)(C)=O)n3)nc2)cc1)c1cc(Cl)c(OCCCl)c(C#N)c1 (centres unmarked) [Compound 140] | 530 | 
7 | CC(C)(c1ccc(-c2ccc(OC3CCN(c4ccnc(N5CC(S(C)(=O)=O)C5)n4)CC3)cc2)cc1)c1cc(Cl)c(OCCCl)c(C#N)c1 [Compound 143] | 900 | 
8 | CC(C)(c1ccc(-c2ccc(OC3CCN(c4ccnc(N5CC(S(C)(=O)=O)C5)n4)CC3)nc2)cc1)c1cc(Cl)c(OCCCl)c(C#N)c1 [Compound 148] | 770 | 
9 | CC(C)(c1ccc(-c2cc(F)c(OCc3ccnc(N=S4(=O)CCOCC4)n3)cn2)cc1)c1cc(Cl)c(OCCCl)c(C#N)c1 [Compound 153] | 780 | 
10 | CC(C)(c1ccc(-c2ccc(OCc3ccnc(N=S4(=O)CCOCC4)n3)c(F)n2)cc1)c1cc(Cl)c(OCCCl)c(C#N)c1 [Compound 154] | 260 | 
11 | CC(C)(c1ccc(-c2ccc(OCc3ccnc(N4CC(OCCS(C)(=O)=O)C4)n3)cc2)cc1)c1cc(Cl)c(OCCCl)c(C#N)c1 [Compound 160] |  | 230
12 | COC1CC2(C1)CN(c1nccc(COc3ccc(-c4ccc(C(C)(C)c5cc(Cl)c(OCCCl)c(C#N)c5)cc4)cc3)n1)C2 [Compound 166] | 1210 | 
13 | CC(C)(c1ccc(-c2ccc(OCC3CCOCC3)cn2)cc1)c1cc(Cl)c(OCCCl)c(C#N)c1 [Compound 169] | 360 | 
14 | CC(C)(c1ccc(-c2ccc(OC[C@@H]3CCOC3)cc2)cc1)c1cc(Cl)c(OCCCl)c(C#N)c1 [Compound 171] | 1240 | 
15 | CC(C)(c1ccc(-c2ccc(OCC3CN(C4CC4)C3)cc2)cc1)c1cc(Cl)c(OCCCl)c(C#N)c1 [Compound 172] | 1230 | 
16 | CC(C)(c1ccc(-c2ccc(OCC3CCOCC3)nc2)cc1)c1cc(Cl)c(OCCCl)c(C#N)c1 [Compound 184] | 920 | 

Row | SMILES | IC50 (168 h) [nM] | IC50 (22Rv1, 168 h) [nM]
17 | CC(C)(c1ccc(-c2ccc(OCC3CC(CN4CC5(COC5)C4)C3)cc2)cc1)c1cc(Cl)c(OCCCl)c(C#N)c1 (centres unmarked) [Compound 196] | 860 | 
18 | CC(C)(c1ccc(-c2ccc(OCc3ccnc(N4CC5(C4)CC(F)(F)C5)n3)cc2)cc1)c1cc(Cl)c(OCCCl)c(C#N)c1 [Compound 198] | 530 | 
19 | CC(C)(c1ccc(-c2ccc(OCc3ccnc(N4CC5COCC5C4)n3)cc2)cc1)c1cc(Cl)c(OCCCl)c(C#N)c1 (centres unmarked) [Compound 199] | 1010 | 
20 | CC(C)(c1ccc(-c2ccc(OCc3ccnc(N4CCN(S(C)(=O)=O)CC4)n3)cc2)cc1)c1cc(Cl)c(OCCCl)c(C#N)c1 [Compound 200] | 580 | 
21 | CC(C)(c1ccc(-c2ccc(OCc3ccnc(OC4CC5(COC5)C4)n3)cc2)cc1)c1cc(Cl)c(OCCCl)c(C#N)c1 [Compound 201] | 190 | 
22 | CC(C)(c1ccc(-c2ccc(OCCOc3nccc(N=S4(=O)CCOCC4)n3)cc2)cc1)c1cc(Cl)c(OCCCl)c(C#N)c1 [Compound 205] | 430 | 
23 | CC(C)(c1ccc(-c2ccc(OCc3ccnc(N4CC5(C4)CS(=O)(=O)C5)n3)nc2)cc1)c1cc(Cl)c(OCCCl)c(C#N)c1 [Compound 208] | 990 | 
24 | CC(C)(c1ccc(-c2ccc(OCc3ccnc(N4CCC(S(C)(=O)=O)CC4)n3)nc2)cc1)c1cc(Cl)c(OCCCl)c(C#N)c1 [Compound 210] | 230 | 
25 | CC(C)(c1ccc(-c2ccc(OCc3ccnc(N=S4(=O)CCNCC4)n3)nc2)cc1)c1cc(Cl)c(OCCCl)c(C#N)c1 [Compound 211] | 390 | 
26 | CC(C)(c1ccc(-c2ccc(OCC3CN(C4CCOCC4)C3)cc2)cc1)c1cc(Cl)c(OCCCl)c(C#N)c1 [Compound 212] | 440 | 
27 | CC(C)(c1ccc(-c2ccc(OCc3ccnc(N=S4(=O)CCN(CC(F)(F)F)CC4)n3)cc2)cc1)c1cc(Cl)c(OCCCl)c(C#N)c1 [Compound 217] | 430 | 
28 | CC(=O)N1CCS(=O)(=Nc2nccc(COc3ccc(-c4ccc(C(C)(C)c5cc(Cl)c(OCCCl)c(C#N)c5)cc4)cc3)n2)CC1 [Compound 218] | 370 | 
29 | CC(C)(c1ccc(-c2ccc(OCc3ccnc(N=S4(=O)CCN(C(=O)C5CC5)CC4)n3)cc2)cc1)c1cc(Cl)c(OCCCl)c(C#N)c1 [Compound 219] | 210 | 
30 | CC(C)(c1ccc(-c2ccc(OCc3ccnc(N=S4(=O)CCN(S(C)(=O)=O)CC4)n3)cc2)cc1)c1cc(Cl)c(OCCCl)c(C#N)c1 [Compound 220] | 170 | 
31 | CC(C)(c1ccc(-c2ccc(OCc3ccnc(N=S4(=O)CCN(C5COC5)CC4)n3)cc2)cc1)c1cc(Cl)c(OCCCl)c(C#N)c1 [Compound 223] | 510 | 

More lines, main results first:

Row | IC50 (168 h) [nM] | SMILES | IC50 (22Rv1, 168 h) [nM]
32 | 860 | C[S+]([O-])c1nccc(COc2ccc(-c3ccc(C(C)(C)c4cc(Cl)c(OCCCl)c(C#N)c4)cc3)cc2)n1 (centres unmarked) [Compound 81] | 
33 | 1320 | CC1(NS(C)(=O)=O)CN(c2nccc(COc3ccc(-c4ccc(C(C)(C)c5cc(Cl)c(OCCCl)c(C#N)c5)cc4)cc3)n2)C1 [Compound 90] | 
34 | 1010 | CN(C1CN(c2nccc(COc3ccc(-c4ccc(C(C)(C)c5cc(Cl)c(OCCCl)c(C#N)c5)cc4)cc3)n2)C1)S(C)(=O)=O [Compound 93] | 
35 | 920 | CC(C)(c1ccc(-c2ccc(OCc3ccnc(N4CC5(CNC5)C4)n3)cc2)cc1)c1cc(Cl)c(OCCCl)c(C#N)c1 [Compound 104] | 
36 | 300 | CC(C)(c1ccc(-c2ccc(OCc3ccnc(N4CC5(C4)CN(S(C)(=O)=O)C5)n3)cc2)cc1)c1cc(Cl)c(OCCCl)c(C#N)c1 [Compound 105] | 
37 | 1280 | CC(C)(c1ccc(-c2ccc(OCc3ccnc(N4CC5(CC(=O)C5)C4)n3)cc2)cc1)c1cc(Cl)c(OCCCl)c(C#N)c1 [Compound 122] | 
38 | 740 | CC(C)(c1ccc(-c2ccc(OCc3ccnc(C4CNC4)n3)cc2)cc1)c1cc(Cl)c(OCCCl)c(C#N)c1 [Compound 144] | 
39 | 330 | CC(C)(c1ccc(-c2ccc(OCc3ccnc(P(C)(C)=O)n3)cc2)cc1)c1cc(Cl)c(OCC2CCC2)c(C#N)c1 [Compound 152] | 
40 | 480 | CC(C)(c1ccc(-c2ccc(OCc3scnc3P(C)(C)=O)cc2)cc1)c1cc(Cl)c(OCCCl)c(C#N)c1 [Compound 157] | 
41 | 390 | CC(C)(c1ccc(-c2ccc(OCc3ccnc(N4CC5(CC(O)C5)C4)n3)cc2)cc1)c1cc(Cl)c(OCCCl)c(C#N)c1 [Compound 165] | 
42 | 400 | CC(C)(c1ccc(-c2ccc(OCc3ccnc(P(C)(C)=O)n3)c(C#N)c2)cc1)c1cc(Cl)c(OCCCl)c(C#N)c1 [Compound 173] | 
43 | 630 | CC(c1ccccc1)(c1ccc(-c2ccc(OCc3ccnc(P(C)(C)=O)n3)cc2)cc1)c1cc(Cl)c(OCCCl)c(C#N)c1 (centres unmarked) [Compound 190] | 
44 | 1330 | CC(C)(c1ccc(-c2ccc(OCc3cc(P(C)(C)=O)ccn3)cc2)cc1)c1cc(Cl)c(OCCCl)c(C#N)c1 [Compound 224] | 
